What was measured:
[1] = tested on: steroid sensitive keloid fibroblasts; assay: RNA-seq differential gene expression in steroid sensitive keloid fibroblasts following TA treatment; type: cell-based, human; conditions: 10 μM TA for 96 hrs vs DMSO, Padj≤0.05
Excerpt: (§1) Culture of keloid-derived primary fibroblasts. Surgically excised keloid and normal skin explants were obtained from patients under Florida State University institutional review board guidelines (Approved by the Human Subjects Committee (HSC) of the Florida State University Institutional Review Board; HSC numbers: 2016.19175 and 2017.22173). The explants were cut into small pieces, digested with trypsin, and washed with and cultured in Dulbecco's Modified Eagle Medium containing 10% fetal bovine serum and antibiotic/antimycotic solution maintained at 37.8° C. (98.68° F.) and 5% carbon dioxide. Outgrowth of only primary dermal fibroblasts occurred under our culture conditions, and these were recovered by trypsinization for use in experiments at low passage. The keloid fibroblasts are morphologically identical to commercially obtained normal primary human dermal fibroblasts (HDF; Cell Applications, Inc., San Diego, CA) used as our normal controls. […]
(§2) RNA extraction. […] The quality and quantity of each RNA sample was measured by Tapestation (Agilent). […]
(§3) RNA-seq. […] The RNA-seq libraries were sequenced on a NovaSeq 6000 sequencer (Illumina) to obtain 2×100 or 2×150-base reads. […] FASTQC was used to filter out reads of low to moderate quality. Paired-end reads were mapped to the GRCh38 reference genome using Salmon (28). The average mapped reads were 323M reads per sample and average mapped rate was 94.8%. […]

[2] = tested on: steroid resistant keloid fibroblasts; assay: RNA-seq differential gene expression in steroid resistant keloid fibroblasts following TA treatment; type: cell-based, human; conditions: 10 μM TA for 96 hrs vs DMSO, Padj≤0.05
Excerpt: as §1, §2, §3

IGF1 = conditions: treatment with prednisolone; literature refs 23, 24; cited from earlier work
IGFBP1 = conditions: treatment with prednisolone; literature refs 23, 24; cited from earlier work
IGFBP2 = conditions: treatment with prednisolone; literature refs 23, 24; cited from earlier work

Row | Compound | genes downregulated after TA treatment [1] | genes upregulated after TA treatment [1] | genes downregulated after TA treatment [2] | genes upregulated after TA treatment [2] | serum IGF1 concentration (IGF1) | IGFBP1 (IGFBP1) | IGFBP2 (IGFBP2)
1 | CC1(C)O[C@@H]2C[C@H]3[C@@H]4CCC5=CC(=O)C=C[C@]5(C)[C@@]4(F)[C@@H](O)C[C@]3(C)[C@]2(C(=O)CO)O1 [TA, Triamcinolone Acetonide] | 521 | 526 | 106 | 131 | – | – | –
2 | C[C@]12C=CC(=O)C=C1CC[C@@H]1[C@@H]2[C@@H](O)C[C@@]2(C)[C@H]1CC[C@]2(O)C(=O)CO [prednisolone] | – | – | – | – | increases | reduces | reduces

— patent US20230332237A1, “Molecular Biomarkers for Predicting Patient Response to Steroid Therapy” (Florida State University Research Foundation, Inc., priority 2022, published 2023)
